Earlier results as cited in US6201025A, “N-aralkylaminotetralins as ligands for the neuropeptide Y Y5 receptor” (Ortho-McNeil Pharmaceutical, Inc., priority 1999, dated 2001).

Columns and labels:
feeding in animals = details: cited from earlier work
classic Y1 receptor = details: cited from earlier work
live animals = details: icv or into the amygdala; cited from earlier work
[1] = test system: animal models of learning; details: cited from earlier work
food intake in rats = details: satiated rats; as little as one-billionth of a gram; cited from earlier work
rodents = details: intracerebroventricularly; cited from earlier work
[2] = test system: forskolin-stimulated cAMP production/levels in a neuroblastoma cell line; details: cited from earlier work
luteinizing hormone (LH) = details: rodents; cited from earlier work

Substance | feeding response (feeding in animals) | binding at the classic Y1 receptor (classic Y1 receptor) | effect in animal models of anxiety (live animals) | memory and performance scores [1] | effect on food intake, injected directly into the CNS (food intake in rats) | anxiogenic effect (rodents) | effect on forskolin-stimulated cAMP production/levels [2] | release of luteinizing hormone (LH) (luteinizing hormone (LH))
NPY2-36: NPY fragment | potent inducer of feeding | poor binding | – | – | – | – | – | –
neuropeptide Y [NPY] | – | – | produces anxiolytic effects | improves memory and performance scores | causes satiated rats to overeat | not anxiogenic | inhibits forskolin-stimulated cAMP production/levels | mediates endocrine functions such as the release of luteinizing hormone (LH)
